From paper PMC8235214, “Purification, Identification, Activity Evaluation, and Stability of Antioxidant Peptides from Alcalase Hydrolysate of Antarctic Krill (Euphausia superba) Proteins” (Marine Drugs, 2021)
Like-named read-outs stand apart in the source and are kept apart here. Ends that are not written are not given here. Peptide text beside a SMILES is read from it.

Tests used:
[1] = cited from earlier work
Text: However, no significant difference was found among the EC50 values of ESP6, ESP7, and ESP8 (p > 0.05).

[2] = cited from earlier work; for Stability under thermal and pH treatments (HO· scavenging activity): high temperature (>60 °C) and strong acid and alkali conditions; for Stability under thermal and pH treatments: 25–100 °C or pH 3–11 treatments
Text: The pH and thermal stability of antioxidant peptides are key properties for their applications in food and health products, and tolerance property on simulated GI digestion treatments can help to assess the rate of metabolism and timeliness of antioxidant peptides in vivo [25, 52, 68, 69].

[3] = design: method as in 6 sources, ref 36 = [36]; PMID 23411302; doi:10.1016/j.foodchem.2012.12.002; 36. Wang B. Li L. Chi C.F. Ma J.H. Luo H.Y. Xu Y.F. Purification and Characterization of a novel antioxidant peptide derived from blue mussel ( Mytilus edulis ) protein hydrolysate Food Chem. 2013 138 ||| ref 45 = [45]; doi:10.1016/j.foodres.2010.02.009; 45. You L. Zhao M. Regenstein J.M. Ren J. Purification and identification of antioxidative peptides from loach ( Misgurnus anguillicaudatus ) protein hydrolysate by consecutive chromatography and elec ||| ref 46 = [46]; PMID 22652579; doi:10.1016/j.peptides.2012.05.013; 46. Wang B. Li Z.R. Chi C.F. Zhang Q.H. Luo H.Y. Preparation and evaluation of antioxidant peptides from ethanol-soluble proteins hydrolysate of Sphyrna lewini muscle Peptides 2012 36 240 250 10.1016/ ||| ref 49 = [49]; PMID 31058809; doi:10.3390/md17050263; 49. Pan X.Y. Wang Y.M. Li L. Chi C.F. Wang B. Four antioxidant peptides from protein hydrolysate of red stingray ( Dasyatis akajei ) cartilages: Isolation, identification, and in vitro activity evalua ||| ref 22 = [22]; PMID 32164197; doi:10.3390/md18030153; 22. Hu X.M. Wang Y.M. Zhao Y.Q. Chi C.F. Wang B. Antioxidant peptides from the protein hydrolysate of monkfish ( Lophius litulon ) muscle: Purification, identification, and cytoprotective function on ||| ...; settings: cited from earlier work
[4] = cited from earlier work; remark: listed apart in the source
Text: In the organism, HO· can oxidize and damage most of the macromolecules due to its high reactivity characteristic. Therefore, looking for natural antioxidant peptides with high HO· scavenging ability is key for discovering new antioxidants. […] In addition, EC50 values of ESP6, ESP7, and ESP8 were also lower ...

[5] = Simulated GI digestion stability (pepsin then pancreatin, DPPH· scavenging read-out); assay type: in vitro ADME; settings: peptide 1.0 mg/mL; two-stage model, pepsin 120 min then pancreatin 60 min (0 to 180 min); mean ± SD, n = 3
Protocol: The influence of simulate GI digestion on the stability of ESP6, ESP7, and ESP8 was evaluated by the two-stage digestion model. In short, ESP6, ESP7, and ESP8 were separately treated with pepsin for 120 min and pancreatin for 60 min.
The DPPH· scavenging ratio (%) of ESP6, ESP7, and ESP8 at 1.0 mg/mL were measured at the set time to analyze their stability.

[6] = peptides from skipjack tuna heads
[7] = peptides from Sphyrna lewini muscle
[8] = peptides from miiuy croaker swim bladders
[9] = peptides from swim bladders of miiuy croaker
[10] = peptides from Raja porosa cartilage
[11] = peptides from Mytilus edulis and scales of croceine croaker
[12] = peptides from red stingray cartilages
[13] = peptides from giant squid protein

Molecule: Glu-Met-Gly-Pro-Ala [EMGPA, antioxidant peptide from skipjack tuna heads]
- EC50 on O2−· [1, 6]: 0.71 mg/mL
- Stability under thermal and pH treatments (HO· scavenging activity) [2]: significantly influenced

Molecule: Pro-Tyr-Phe-Asn-Lys [PYFNK, antioxidant peptide from Sphyrna lewini muscle]
- EC50 on O2−· [1, 7]: 0.11 mg/mL
- EC50 on DPPH· [3, 7]: 4.11 mg/mL
- EC50 on HO· [4, 7]: 0.24 mg/mL

Molecule: C[C@H](NC(=O)[C@H](CCC(=O)O)NC(=O)[C@H](Cc1ccc(O)cc1)NC(=O)[C@@H](N)CCC(=O)O)C(=O)O [ESP8, Glu-Tyr-Glu-Ala] (H-EYEA-OH)
- Decrease of DPPH· scavenging ratio by simulated GI digestion [5]: 6.48 ± 1.03%

Molecule: FPYLRH [FPYLRH, antioxidant peptide from miiuy croaker swim bladders]
- EC50 on DPPH· [3, 8]: 0.51 ± 0.03 mg/mL
- EC50 on HO· [4, 8]: 0.68 ± 0.05 mg/mL

Molecule: Met-Ile-Leu-Met-Arg [MILMR, antioxidant peptide from croceine croaker muscle]
- EC50 on O2−· ([1]; peptide from croceine croaker muscle): 0.993 mg/mL

Molecule: Met-Glu-Pro-Val-Trp [MEPVW, antioxidant peptide from monkfish muscle]
- EC50 on O2−· ([1]; peptide from monkfish muscle): 0.94 mg/mL
- EC50 on DPPH· ([3]; peptides from monkfish muscle): 0.62 mg/mL

Molecule: Pro-Ser-Tyr-Val [PSYV, antioxidant peptide from weatherfish loach]
- EC50 on DPPH· ([3]; peptide from weather loach): 17.0 mg/mL
- EC50 on HO· ([4]; peptide from weatherfish loach): 2.64 mg/mL

Molecule: Gly-Phe-Tyr-Ala-Ala [GFYAA, antioxidant peptide from miiuy croaker swim bladders]
- EC50 on O2−· [1, 9]: 3.03 ± 0.19 mg/mL
- EC50 on HO· [4, 8]: 2.35 ± 0.22 mg/mL

Molecule: IVAGPQ [IVAGPQ, antioxidant peptide from skate (Raja porosa) cartilages]
- EC50 on O2−· [1, 10]: 1.82 mg/mL
- EC50 on HO· ([4]; peptide from skate cartilages): 5.03 mg/mL

Molecule: Phe-Ser-Gly-Leu-Arg [FSGLR, antioxidant peptide from miiuy croaker swim bladders]
- EC50 on O2−· [1, 9]: 3.35 ± 0.20 mg/mL
- EC50 on HO· [4, 8]: 2.45 ± 0.25 mg/mL

Molecule: Tyr-Leu-Pro-Tyr-Ala [YLPYA, antioxidant peptide from swim bladders of miiuy croaker]
- EC50 on O2−· [1, 9]: 3.61 ± 0.25 mg/mL

Molecule: VPDDD [antioxidant peptide from swim bladders of miiuy croaker]
- EC50 on O2−· [1, 9]: 4.11 ± 0.31 mg/mL

Molecule: Tyr-Pro-Pro-Ala-Lys [YPPAK, antioxidant peptide from blue mussel (Mytilus edulis)]
- EC50 on O2−· ([1]; peptide from blue mussel): 0.072 mg/mL
- EC50 on DPPH· [3, 11]: 2.62 mg/mL
- EC50 on HO· ([4]; peptide from blue mussel): 0.228 mg/mL

Molecule: Val-Pro-Arg [VPR]
- EC50 on DPPH· [3, 12]: 4.61 mg/mL

Molecule: Ile-Glu-Glu-Glu-Gln [IEEEQ, antioxidant peptide from red stingray cartilages]
- EC50 on DPPH· [3, 12]: 4.01 mg/mL

Molecule: WAFAPA
- Stability under thermal and pH treatments [2]: high stability

Molecule: CC(C)C[C@H](NC(=O)[C@@H](N)CO)C(=O)N1CCC[C@H]1C(=O)N[C@@H](Cc1ccc(O)cc1)C(=O)O [ESP6, Ser-Leu-Pro-Tyr] (H-SLPY-OH)
- Decrease of DPPH· scavenging ratio by simulated GI digestion [5]: 6.41 ± 0.96%

Molecule: Tyr-Trp-Asp-Ala-Trp [YWDAW, antioxidant peptide from monkfish muscle]
- EC50 on DPPH· ([3]; peptides from monkfish muscle): 0.51 mg/mL

Molecule: EDIVCW [EDIVCW, antioxidant peptide from monkfish muscle]
- EC50 on DPPH· ([3]; peptides from monkfish muscle): 0.39 mg/mL

Molecule: Trp-Asp-Arg [WDR, antioxidant peptide from Sphyrna lewini muscle]
- EC50 on O2−· [1, 7]: 0.09 mg/mL
- EC50 on DPPH· [3, 7]: 3.63 mg/mL
- EC50 on HO· [4, 7]: 0.15 mg/mL

Molecule: Phe-Thr-Gly-Met-Asp [FTGMD, antioxidant peptide from miiuy croaker swim bladders]
- EC50 on O2−· [1, 9]: 3.04 ± 0.27 mg/mL
- EC50 on HO· [4, 8]: 2.31 ± 0.12 mg/mL

Molecule: FDSGPAGVL [FDSGPAGVL, antioxidant peptide from giant squid protein]
- EC50 on HO· [4, 13]: 0.078 mg/mL

Molecule: Gly-Phe-Pro-Ser-Gly [GFPSG, antioxidant peptide from scales of croceine croaker]
- EC50 on DPPH· [3, 11]: 0.283 mg/mL

Molecule: GPAGPAG [GPAGPAG, antioxidant peptide from scales of croceine croaker]
- EC50 on DPPH· [3, 11]: 0.675 mg/mL

Molecule: MYPGLA
- Stability under thermal and pH treatments [2]: high stability

Molecule: CSCC[C@H](NC(=O)[C@@H]1CCCN1C(=O)[C@@H]1CCCN1C(=O)[C@H](Cc1ccc(O)cc1)NC(=O)[C@@H](N)CCC(N)=O)C(=O)N[C@@H](CCC(N)=O)C(=O)N[C@@H](Cc1ccc(O)cc1)C(=O)O [ESP7, Gln-Tyr-Pro-Pro-Met-Gln-Tyr] (H-QYPPMQY-OH)
- Decrease of DPPH· scavenging ratio by simulated GI digestion [5]: 8.36 ± 0.59%

Molecule: Trp-Glu-Gly-Pro-Lys [WEGPK, antioxidant peptide from heads of bluefin leatherjacket]
- EC50 on HO· ([4]; peptide from heads of bluefin leatherjacket): 5.567 mg/mL

Molecule: Trp-Met-Phe-Asp-Trp [WMFDW, antioxidant peptide from skipjack tuna heads]
- EC50 on O2−· [1, 6]: 0.56 mg/mL
- Stability under thermal and pH treatments (HO· scavenging activity) [2]: significantly influenced

Molecule: ATSHH
- Stability under thermal and pH treatments (DPPH· scavenging activity) ([2]; 50–90 °C and strong acids and bases): will decrease its partial DPPH· scavenging activity

Molecule: GPAGDY [GPAGDY, antioxidant peptide from Raja porosa cartilage]
- EC50 on O2−· [1, 10]: 1.66 mg/mL

Molecule: Tyr-Phe-Leu-Trp-Pro [YFLWP, antioxidant peptide from miiuy croaker muscle]
- EC50 on O2−· ([1]; peptide from miiuy croaker muscle): 3.08 mg/mL

Molecule: Trp-Met-Gly-Pro-Tyr [WMGPY, antioxidant peptide from skipjack tuna heads]
- EC50 on O2−· [1, 6]: 0.38 mg/mL
- Stability under thermal and pH treatments (HO· scavenging activity) [2]: significantly influenced

Molecule: Val-Pro-Asp-Asp [VPDD, antioxidant peptide from miiuy croaker swim bladders]
- EC50 on HO· [4, 8]: 2.85 ± 0.19 mg/mL

Molecule: Leu-Glu-Glu-Glu-Glu [LEEEE, antioxidant peptide from red stingray cartilages]
- EC50 on DPPH· [3, 12]: 3.69 mg/mL

Molecule: Gly-Ile-Glu-Trp-Ala [GIEWA, antioxidant peptide from miiuy croaker swim bladders]
- EC50 on DPPH· [3, 8]: 0.78 ± 0.05 mg/mL

Molecule: NGPLQAGQPGER [NGPLQAGQPGER, antioxidant peptide from giant squid protein]
- EC50 on HO· [4, 13]: 0.123 mg/mL

Molecule: FIMGPY [FIMGPY, antioxidant peptide from Raja porosa cartilage]
- EC50 on O2−· [1, 10]: 1.61 mg/mL
